The source of these data is patent US11192893B2, “Pyrazoloquinazolinone antitumor agents” (The Rockefeller University, priority 2017, dated 2021).

Structures are written as SMILES. Like-named read-outs stand apart in the source and are kept apart here.

Assay [1] concerns the target human cytoplasmic dynein 2 (Homo sapiens (Human), UniProt Q8NCM8). The experiment in a line: microtubule gliding assay with GFP-dynein 2. In kind it is biochemical. Conditions: 1 mM MgATP; for Gliding velocity: dynein 2-driven microtubule gliding, test compounds at 20 pM (so in the source), 0.05 mg/mL casein, 2% DMSO, solvent control 126 ± 17; for IC50: Table 1, dose-dependent analysis of dynein 2-driven microtubule gliding. How it is done: Compounds were tested employing a microtubule gliding assay, a standard biochemical assay for motor proteins. […] We purified an N-terminally GFP-tagged motor-domain construct of dynein 2 using an insect cell expression system [Schmidt et al., Nature. 2015; 518(7539):435-8]. The GFP tag in this construct allowed immobilization on passivated glass coverslips used in microtubule gliding assays. GFP-dynein 2, in the presence of ATP (1 mM), moved microtubules with a velocity of 128±14 nm/s. The mean velocity of dynein 2-driven microtubule gliding in the presence of control solvent (2% DMSO) and test compounds at 20 pM were compared. All motility assays were run at 1 mM MgATP, 0.05 mg/mL casein, and 2% DMSO. Representative examples of compounds of the invention provided the results shown as “Gliding velocity in nm/s” in Table 1. For some compounds, dose-dependent analyses were performed, and the results are shown as “IC50 in μM” in Table 1.
Microtubule surface gliding assay. Cytoplasmic dynein was purified from bovine brains as described by Bingham et al. [Methods Enzymol. 298, 171 (1998)]. K560, a 560-amino acid N-terminal fragment of human conventional kinesin (kinesin-1) with a C-terminal His-tag, was expressed in bacteria and purifed as described by Woehlke et al., [Cell 90, 207 (1997)]. Motility assays were performed on a Zeiss Axiovert 200M wide-field microscope equipped with a Zeiss 100×/1.45 NA α-Plan-Fluar objective. Data were captured with an EM-CCD camera (iXon DU-897, Andor Technology) with a 0.3-second exposure time and frame rate of 0.5 second^−1. Microtubule gliding assays were performed as described by Kapoor and Mitchison [Proc. Natl. Acad. Sci. U.S.A 96, 9106 (1999)] with some modifications. An approximately 6-μL flow chamber was filled with motor protein (100 μg/mL dynein or 50 μg/mL K560) in motor dilution buffer (80 mM Pipes, 1 mM EGTA, 2 mM MgCl2, 2 mM DTT, 50 μM ATP, pH 6.8 with KOH). After a 2-minute incubation, excess protein was washed out with 20 μL of PEM80 buffer (80 mM Pipes, 1 mM EGTA, 2 mM MgCl2, pH 6.8 with KOH) and the surface was blocked against non-specific microtubule binding by filling the chamber with blocking protein (0.5 mg/mL α-casein for dynein experiments and 1 mg/mL BSA for K560 experiments) in motor dilution buffer. After 2 minutes the chamber was perfused with 18 μL of reaction mix (PEM80, 40 mM KC 1, blocking protein [1 mg/mL α-casein for dynein experiments; 1 mg/mL BSA for K560 experiments], 2 mM MgATP, 20 μM taxol, 0.1 μM rhodamine-labeled microtubules, oxygen depletion system [4 mM DTT, 2 mM glucose, 40 μg/mL glucose oxidase, 35 μg/mL catalase], 2.5% DMSO, and test compounds as appropriate). The flow chamber was then sealed with valap. After allowing the microtubules to bind to the surface for 5 minutes, the gliding microtubules were visualized by time-lapse fluorescence microscopy. Velocities were measured by kymography using Metamorph software (Molecular Devices), and the velocity for each microtubule was determined from the total distance during the time observed.
For washout experiments, the chamber was left unsealed after the initial reaction mix containing inhibitor was added. Microtubules were allowed to bind to the surface for 5 minutes, and then a time-lapse movie was acquired. The inhibitor was then washed out of the chamber by flowing in 20 μL of fresh reaction mix (PEM80, 40 mM KCl, 1 mg/mL α-casein, 2 mM MgATP, 20 μM taxol, oxygen depletion system, and 2.5% DMSO) without additional microtubules or inhibitor. The chamber was sealed, and additional time-lapse movies were acquired.

For assay [2], the system named is Hedgehog pathway activity. The assay is described as follows: Shh-Light luciferase reporter assay of Hedgehog pathway activity (Shh-Light2 cells, SAG-stimulated). The assay is classed as cell-based. Conditions: for activity at 20 µM: 20 μM compound, read-out: SHH-light % residual @ 20 μM; for activity at 2 µM: 2 μM compound, read-out: SHH-light % residual @ 2 μM. The protocol: To examine the inhibition of dynein 2 in cell-based assays, an established luciferase reporter-based cellular assay of Hedgehog pathway activity was employed [Taipale et al., Nature. 2000; 406(6799): 1005-9]. Signaling in this pathway depends on the function of dynein 2. In this setting, expression of luciferase driven by Hedgehog pathway activity was inhibited by compound 5 with an IC50 value of 0.9±0.5 μM. […] The potencies of these compounds in this cell-based assay match the rank-order of dynein 2 inhibition in vitro. In these assays, Hedgehog pathway activity was stimulated using the Synthetic Agonist of Smoothened (SAG). This compound competes with many Hedgehog pathway inhibitors for binding to Smoothened, a key node in the signaling pathway.
SHH-Light Assay (Steinman et al. eLife 2017; 6:e25174.)
NIH-3T3 cells stably expressing a luciferase reporter downstream of a Gli binding site (Shh-Light2 cells, RRID: CVCL_2721) were maintained in DMEM with 10% bovine calf serum (BCS). Cells were seeded at a density of 30,000 cells/well in 96-well tissue culture-treated plates (Corning, cat #353072) in 100 μL in DMEM+10% BCS, and incubated for 48 hr (Taipale et al., 2000). Wells were washed briefly with PBS. Next […] of low serum media (DMEM+0.5% BCS) containing smoothened agonist (SAG, 500 nM), and either solvent control (0.2% DMSO) or test compound (serial three-fold dilutions of each inhibitor starting from 20 μM) were added to the wells. After 28-32 hr of inhibitor treatment, cells were washed with 50 μL PBS and lysed for >30 min in 30 μL Passive Lysis Buffer (Promega Dual Luciferase kit, cat E1910). 5 uL of each lysate was transferred to white, solid-bottom 96-well plates (Greiner, cat #655075), followed by rapid addition (within 30 s) of 30 μL of Luciferase Assay Reagent using a multichannel pipette. Luminescence for each condition was read using a Synergy Neo plate reader (5 s integration time per well). Cell line identity was confirmed by measurement of the degree of response to Hedgehog pathway stimulation by the synthetic agonist SAG and using previously published values from our groups and others as references (Firestone et al., 2012; Hyman et al., 2009).
On the technique in general: A reporter such as luciferase makes a cellular process visible.

The test system of assay [3] is medulloblastoma. The note with it: human patient; cited from earlier work.
Assay [4] concerns basal cell carcinoma. The note with it: 33 human patients; cited from earlier work.
Where [5] appears, read: Table 2, SAG 500 nM, 28-32 hr treatment, read-out: Shh-light IC50.

Sequence of human cytoplasmic dynein 2 (Q8NCM8 1091-4307 limits assumed): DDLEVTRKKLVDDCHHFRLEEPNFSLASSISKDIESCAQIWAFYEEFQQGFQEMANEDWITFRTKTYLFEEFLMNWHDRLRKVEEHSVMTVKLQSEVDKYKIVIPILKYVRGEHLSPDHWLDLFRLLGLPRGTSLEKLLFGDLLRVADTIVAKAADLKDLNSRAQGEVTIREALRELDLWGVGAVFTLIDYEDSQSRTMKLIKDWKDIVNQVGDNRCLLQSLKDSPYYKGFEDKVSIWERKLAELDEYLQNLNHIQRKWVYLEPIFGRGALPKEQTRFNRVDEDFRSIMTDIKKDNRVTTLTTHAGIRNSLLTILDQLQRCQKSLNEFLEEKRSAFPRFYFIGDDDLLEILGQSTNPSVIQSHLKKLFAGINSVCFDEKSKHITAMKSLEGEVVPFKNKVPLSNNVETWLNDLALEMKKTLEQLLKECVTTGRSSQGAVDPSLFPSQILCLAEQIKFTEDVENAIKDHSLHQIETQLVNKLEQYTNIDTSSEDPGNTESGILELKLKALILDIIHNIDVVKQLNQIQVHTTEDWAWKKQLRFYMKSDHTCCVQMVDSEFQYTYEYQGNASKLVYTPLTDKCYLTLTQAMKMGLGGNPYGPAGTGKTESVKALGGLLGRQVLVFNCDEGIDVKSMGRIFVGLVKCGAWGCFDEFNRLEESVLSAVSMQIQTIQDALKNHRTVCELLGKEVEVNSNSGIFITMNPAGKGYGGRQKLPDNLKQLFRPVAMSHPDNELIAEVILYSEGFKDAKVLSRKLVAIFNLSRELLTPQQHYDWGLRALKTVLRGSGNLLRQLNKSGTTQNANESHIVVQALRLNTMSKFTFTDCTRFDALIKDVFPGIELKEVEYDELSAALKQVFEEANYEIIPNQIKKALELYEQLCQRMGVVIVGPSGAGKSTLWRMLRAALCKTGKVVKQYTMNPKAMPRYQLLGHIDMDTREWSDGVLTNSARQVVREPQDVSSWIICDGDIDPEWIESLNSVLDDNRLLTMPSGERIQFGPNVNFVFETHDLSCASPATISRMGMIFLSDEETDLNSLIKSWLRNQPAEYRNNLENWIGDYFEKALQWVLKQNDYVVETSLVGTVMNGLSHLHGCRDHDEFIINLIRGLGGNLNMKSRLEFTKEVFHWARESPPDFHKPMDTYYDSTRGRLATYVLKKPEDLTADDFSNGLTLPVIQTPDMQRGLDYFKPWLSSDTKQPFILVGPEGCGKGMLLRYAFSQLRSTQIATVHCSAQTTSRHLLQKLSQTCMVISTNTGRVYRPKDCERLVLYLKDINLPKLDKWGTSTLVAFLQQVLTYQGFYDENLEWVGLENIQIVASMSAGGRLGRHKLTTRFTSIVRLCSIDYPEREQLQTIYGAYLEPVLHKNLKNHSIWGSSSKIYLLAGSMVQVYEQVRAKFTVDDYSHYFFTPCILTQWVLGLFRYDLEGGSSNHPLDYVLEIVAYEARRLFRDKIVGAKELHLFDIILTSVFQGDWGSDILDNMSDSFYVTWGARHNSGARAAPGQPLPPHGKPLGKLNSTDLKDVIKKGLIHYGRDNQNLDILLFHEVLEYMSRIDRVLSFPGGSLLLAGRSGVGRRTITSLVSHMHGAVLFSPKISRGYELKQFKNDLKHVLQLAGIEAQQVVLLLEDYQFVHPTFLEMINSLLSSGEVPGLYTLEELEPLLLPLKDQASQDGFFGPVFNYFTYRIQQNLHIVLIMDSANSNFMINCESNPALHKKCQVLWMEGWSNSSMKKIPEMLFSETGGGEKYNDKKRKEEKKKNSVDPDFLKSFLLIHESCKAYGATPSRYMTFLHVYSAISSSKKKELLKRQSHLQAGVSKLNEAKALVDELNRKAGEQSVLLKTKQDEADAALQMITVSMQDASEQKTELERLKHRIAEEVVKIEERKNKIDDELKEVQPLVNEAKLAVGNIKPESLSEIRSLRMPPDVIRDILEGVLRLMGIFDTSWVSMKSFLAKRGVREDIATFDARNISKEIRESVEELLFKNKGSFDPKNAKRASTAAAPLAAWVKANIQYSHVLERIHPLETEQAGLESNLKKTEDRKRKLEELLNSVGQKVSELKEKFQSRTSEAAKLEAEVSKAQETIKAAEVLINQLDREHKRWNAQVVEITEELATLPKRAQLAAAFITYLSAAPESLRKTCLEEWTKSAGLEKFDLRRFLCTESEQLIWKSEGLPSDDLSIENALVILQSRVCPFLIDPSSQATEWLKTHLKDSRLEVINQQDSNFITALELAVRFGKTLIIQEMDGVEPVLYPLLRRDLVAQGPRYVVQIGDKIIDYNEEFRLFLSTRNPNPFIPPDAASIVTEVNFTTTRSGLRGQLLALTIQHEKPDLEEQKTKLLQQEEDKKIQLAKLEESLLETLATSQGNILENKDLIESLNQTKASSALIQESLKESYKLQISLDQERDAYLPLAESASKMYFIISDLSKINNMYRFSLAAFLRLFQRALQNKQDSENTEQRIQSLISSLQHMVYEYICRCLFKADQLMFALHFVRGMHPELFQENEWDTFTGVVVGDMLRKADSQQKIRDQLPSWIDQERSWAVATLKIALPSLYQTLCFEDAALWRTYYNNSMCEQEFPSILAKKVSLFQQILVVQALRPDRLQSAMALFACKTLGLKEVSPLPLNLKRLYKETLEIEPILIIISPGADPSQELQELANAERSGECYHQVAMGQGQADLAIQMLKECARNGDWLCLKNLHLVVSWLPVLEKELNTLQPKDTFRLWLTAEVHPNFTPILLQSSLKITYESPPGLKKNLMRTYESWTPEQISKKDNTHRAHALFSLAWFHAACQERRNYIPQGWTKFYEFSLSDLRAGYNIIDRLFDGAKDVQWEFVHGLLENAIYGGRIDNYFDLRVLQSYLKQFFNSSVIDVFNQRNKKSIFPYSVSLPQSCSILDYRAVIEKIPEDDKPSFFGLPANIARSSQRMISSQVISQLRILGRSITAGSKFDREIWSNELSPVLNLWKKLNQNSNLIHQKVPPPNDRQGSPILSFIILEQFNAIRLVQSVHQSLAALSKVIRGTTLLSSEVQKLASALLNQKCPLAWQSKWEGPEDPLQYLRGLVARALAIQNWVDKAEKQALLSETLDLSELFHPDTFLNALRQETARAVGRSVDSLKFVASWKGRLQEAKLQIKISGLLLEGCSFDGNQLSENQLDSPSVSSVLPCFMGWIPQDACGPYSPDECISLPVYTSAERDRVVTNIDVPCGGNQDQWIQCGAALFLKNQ

On to `O=c1[nH]c2cc(-c3ccc(Cl)cc3Cl)nn2c2ccccc12` [Example 1, 2-(2,4-dichlorophenyl)-4H-pyrazolo[1,5-a]quinazolin-5-one], for which the Gliding velocity in assay [1] turned out to be 83 ± 10 nm/s.

`N#Cc1c(-c2ccc(Cl)cc2Cl)nn2c1[nH]c(=O)c1ccccc12` [Example 2, 2-(2,4-dichlorophenyl)-5-oxo-4H-pyrazolo[1,5-a]quinazoline-3-carbonitrile]: in assay [1], the Gliding velocity was found to be 83 ± 10 nm/s. In assay [2] (SAG 500 nM), the activity at 20 µM amounted to 19.1%. Also, in assay [2] (SAG 500 nM, read-out: IC50, luciferase expression driven by Hedgehog pathway activity), the IC50 is 5200 ± 5000 nM.

As for `N#Cc1c(C2(c3ccc(Cl)cc3)CC2)nn2c1[nH]c(=O)c1ccccc12` [Example 3, 2-[1-(4-chlorophenyl)cyclopropyl]-5-oxo-4H-pyrazolo[1,5-a]quinazoline-3-carbonitrile], the Gliding velocity in assay [1] came out at 58 ± 14 nm/s.

With `N#Cc1c(C2(c3ccc(Cl)cc3)CC2)nn2c1[nH]c(=O)c1cc(C(F)(F)F)ccc12` [Example 4, 2-(1-(4-chlorophenyl)cyclopropyl)-5-oxo-7-(trifluoromethyl)-4,5-dihydropyrazolo[1,5-a]quinazoline-3-carbonitrile], in assay [1], half-maximal inhibition (IC50) was put at 3300 ± 200 nM and the Gliding velocity amounted to 6 ± 2 nm/s. Further, in assay [2] (SAG 500 nM), the activity at 2 µM came out at 41.8% and the activity at 20 µM was -4.4%.

In turn, `N#Cc1c(C2(c3ccc(Cl)cc3)CC2)nn2c(=O)c3cc(Br)ccc3[nH]c12` [Example 12, 7-Bromo-2-[1-(4-chlorophenyl)cyclopropyl]-9-oxo-4H-pyrazolo[5,1-b]quinazoline-3-carbonitrile] showed an IC50 in assay [1] of 290 nM. For the same molecule, in assay [2] (SAG 500 nM), the activity at 2 µM is -3.1% and the activity at 20 µM was -1.9%. The IC50 in assay [2] (setting [5]) was found to be 290 nM.

On to `N#Cc1c(C2CCC(c3ccc(Cl)cc3)CC2)nn2c(=O)c3ccccc3[nH]c12` (stereo not shown) [Example 27, 2-[4-(4-Chlorophenyl)cyclohexyl]-9-oxo-4H-pyrazolo[5,1-b]quinazoline-3-carbonitrile], for which the IC50 in assay [1] is 620 nM. In assay [2] (SAG 500 nM), the activity at 2 µM was 27.3% and the activity at 20 µM was -1.5%. The IC50 in assay [2] (setting [5]) was 600 nM.

In the case of `N#Cc1c(CCCOc2ccc(Cl)cc2)nn2c(=O)c3ccccc3[nH]c12` [Example 29, 2-[3-(4-Chlorophenoxy)propyl]-9-oxo-4H-pyrazolo[5,1-b]quinazoline-3-carbonitrile], the results for the concentration for half-maximal inhibition (IC50) in assay [1] and in assay [2] (setting [5]) were 730 nM and 680 nM, respectively. Also, the activity at 2 µM in assay [2] (SAG 500 nM) was determined as 33.5%. For the same molecule, the activity at 20 µM in assay [2] (SAG 500 nM) turned out to be 3.8%.

For the molecule `N#Cc1c(C2(c3ccc(Cl)cc3)CC2)nn2c(=O)c3ccccc3[nH]c12` [Example 31, 2-[1-(4-Chlorophenyl)cyclopropyl]-9-oxo-4H-pyrazolo[5,1-b]quinazoline-3-carbonitrile], it took 710 nM to reach half-maximal inhibition in assay [1] (IC50). Also, in assay [2] (SAG 500 nM), the activity at 2 µM stood at 30.4% and the activity at 20 µM is -1.6%. Besides, in assay [2] (setting [5]), the IC50 turned out to be 660 nM.

As to `O=c1c2ccc(Cl)cc2[nH]c2cc(-c3ccc(Cl)cc3Cl)nn12` [Example 69, 6-Chloro-2-(2,4-dichlorophenyl)-4H-pyrazolo[5,1-b]quinazolin-9-one], in assay [2] (SAG 500 nM), the activity at 2 µM worked out at 75% and the activity at 20 µM amounted to 65.4%.

Regarding `O=c1c2ccccc2[nH]c2cc(-c3ccc(Cl)cc3Cl)nn12` [Example 70, 2-(2,4-Dichlorophenyl)-4H-pyrazolo[5,1-b]quinazolin-9-one], in assay [2] (SAG 500 nM), the activity at 2 µM came to 109% and the activity at 20 µM was 113%.

For the molecule `O=c1c2ccccc2[nH]c2cc(-c3ccc(C(F)(F)F)cc3)nn12` [Example 71, 2-[4-(Trifluoromethyl)phenyl]-4H-pyrazolo[5,1-b]quinazolin-9-one], in assay [2] (SAG 500 nM), the activity at 2 µM stood at 108% and the activity at 20 µM was 115%.

In the case of `CN(C)Cc1c(-c2ccc(Cl)cc2Cl)nn2c(=O)c3ccccc3[nH]c12` [Example 72, 2-(2,4-Dichlorophenyl)-3-[(dimethylamino)methyl]-4H-pyrazolo[5,1-b]quinazolin-9-one], in assay [2] (SAG 500 nM), the activity at 2 µM was found to be 122% and the activity at 20 µM amounted to 20.1%.

As to `O=c1c2ccccc2[nH]c2c(I)c(-c3ccc(Cl)cc3Cl)nn12` [Example 73, 2-(2,4-Dichlorophenyl)-3-iodo-4H-pyrazolo[5,1-b]quinazolin-9-one], in assay [2] (SAG 500 nM), the activity at 2 µM was determined as 99.1% and the activity at 20 µM was 34.6%.

For `CS(=O)(=O)c1ccc(C(=O)Nc2ccc(Cl)c(-c3ccccn3)c2)c(Cl)c1` [GDC-0449], in assay [3], the “clinical response, medulloblastoma” value is listed as “regression of medulloblastoma”. In assay [4], the “clinical response, basal cell carcinoma” value is “clinically significant response”.

A word on the IC50: it is the point on the concentration scale where inhibition reaches its midpoint.
